Source: patent US9173935B2, “Phospholipid drug analogs” (Telormedix SA, priority 2010, dated 2015)

Tests used:
[1] = tested on: HLA-DR+/CD11c+/CD123- mDCs; experiment: FACS analysis of myeloid DC activation in whole blood; format: cell-based, human; conditions: 24 hours, 0.1 and 0.5 uM, three donors
Procedure: A flow cytometric analysis was performed on whole blood from three donors after treatment with two compound concentrations for 24 h. The FACS analysis for donor 1 and donor 2 was made on another day than donor 3. The compound concentrations were as follows:
The FACS analysis was used to identify whether the test compounds could induce activation of B cells, and two different subsets of dendritic cells, namely the myeloid CD11c+/CD123− DCs and the plasmacytoid CD11c−/CD123+ DCs. The following markers were studied to identify the activation status of the different subsets:
The FACS staining was performed according to the manufacturer's instructions. Lysis of red blood cells was performed before FACS staining in order to minimize auto-florescence. To include as many B cells and DCs in the study as possible the FACS analyses were performed on 500,000 cells in total for each staining. A P1 gate was set only to include relevant cells on FSC vs. SSC (see FIGS. 12-15). The results of the individual analysis were present as Mean Fluorescence Intensity
The analysis of myeloid DCs was based on HLA-DR+/CD11c+/CD123-cells, thus all analyzed cells was included in the HLA-DR+ (P3) gate and CD11c+/CD123− (Q4) gate (see gates in FIGS. 13-15).

[2] = Stability of solid samples with respect to heat (80° C.), HPLC; format: physicochemical
Procedure: Solid samples of each compound were maintained at 80° C. and analyzed by HPLC.

For CCCCCCCCCCCC(=O)OCC(COP(=O)(O)OCCNC(=O)c1ccc(Cn2c(=O)[nH]c3c(N)nc(OCCOC)nc32)cc1)OC(=O)CCCCCCCCCCC (stereo not drawn) [SC12], the “CCR7 expression on mDCs” value [1] was “less potent stimulator of CCR7 expression”, the “CD80 expression on mDCs” value [1] was “induced a noteworthy CD80 expression in all three donors” and the “CD86 expression on mDCs” value [1] was “induces a weak CD86 expression in donor 2 and 3, but not in donor 1”. For the same compound, the “HPLC purity of solid sample” value ([2]; After 2 hrs at 80° C.) was 90% HPLC, the “HPLC purity of solid sample” value ([2]; After 22 hrs at 80° C.) was 88% HPLC and the “HPLC purity of solid sample” value ([2]; t = 0) was 90% HPLC.
